# Laboratory results reported in patent US9540343B2 (Gilead Sciences, Inc., priority 2011, dated 2017).
# What was measured:
# HIV-IIIb = assay: Test A: Antiviral assay in MT4 cells; type: cell-based, HIV-1; conditions: MT-4 cells infected with HIV-IIIb, 5 days, CellTiter-Glo; for inhibition at 2 µM: Human immunodeficiency virus 1, IIIB, MT4, 120 h, read-out: % inhibition at 2 μM, percent inhibition of virus-induced cell killing, from dose response curve at 2 uM drug
# in vitro = conditions: human, uninfected MT-4 cells, CC50 (nM), same protocol as Test A, CellTiter-Glo
# Outline: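 Cytoprotection read-out: CellTiter-Glo chemiluminescence after 5 days at 37 °C of HIV-IIIb-infected MT-4 cells (m.o.i. 0.003) with compound in 10-point 3-fold dilutions, quadruplicate, 10% FBS. Cytotoxicity (CC50) measured identically without virus.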
Compound,inhibition at 2 µM (HIV-IIIb) [%],CC50 at 5 days (in vitro) [nM],"% inhibition at 2 μM (HIV-IIIb; percent inhibition of virus-induced cell killing, from dose response curve at 2 uM drug) [%]"
"Cc1ccccc1-c1cccnc1C(Cc1cc(F)cc(F)c1)NC(=O)Cn1nc(C(F)(F)F)c2c1CCCC2 (stereo not shown) [Example 4, N-(2-(3,5-difluorophenyl)-1-(3-o-tolylpyridin-2-yl)ethyl)-2-(3-(trifluoromethyl)-4,5,6,7-tetrahydro-1H-indazol-1-yl)acetamide]",69,10300,
"O=C(Cn1cnc2c1CCCC2)N[C@@H](Cc1cc(F)cc(F)c1)c1ncccc1Br [Example 286, (S)—N-(1-(3-bromopyridin-2-yl)-2-(3,5-difluorophenyl)ethyl)-2-(4,5,6,7-tetrahydro-1H-benzo[d]imidazol-1-yl)acetamide]",0,25200,
"NC(=O)c1cc(-c2cccnc2[C@H](Cc2cccc(F)c2)NC(=O)Cn2nc(C(F)(F)F)c3ccccc32)ccc1F [Example 213C, (S)-2-fluoro-5-(2-(2-(3-fluorophenyl)-1-(2-(3-(trifluoromethyl)-1H-indazol-1-yl)acetamido)ethyl)pyridin-3-yl)benzamide]",14,15900,
"O=C(Cn1nc(C(F)F)c2c1C(F)(F)C1CC21)N[C@@H](Cc1cc(F)cc(F)c1)c1ncccc1-c1cnc2nccnc2c1 (stereo partly drawn) [Example 85, (S)—N-(1-(3-(pyrido[2,3-b]pyrazin-7-yl)-pyridin-2-yl)-2-(3,5-difluorophenyl)ethyl)-2-(3-(difluoromethyl)-5,6-dihydro-4,5-(methano)-6,6-difluoro-cyclopenta[c]pyrazol-1(4H)-yl)acetamide]",9,43000,
"COCc1cn(CC(=O)N[C@@H](Cc2cc(F)cc(F)c2)c2ncccc2-c2ccc(F)c(C(N)=O)c2)nc1C(F)(F)F [Example 361, (S)-5-(2-(2-(3,5-difluorophenyl)-1-(2-(4-(methoxymethyl)-3-(trifluoromethyl)-1H-pyrazol-1-yl)acetamido)ethyl)pyridin-3-yl)-2-fluorobenzamide]",8,> 53200,
"NC(=O)c1cc(-c2cccnc2[C@H](Cc2cc(F)cc(F)c2)NC(=O)[C@@H]2CCCN2)ccc1F [Example 175, (S)—N—((S)-1-(3-(3-carbamoyl-4-fluorophenyl)pyridin-2-yl)-2-(3,5-difluorophenyl)ethyl)pyrrolidine-2-carboxamide]",1,> 53000,
"Cc1c(C#N)c(C(F)(F)F)nn1CC(=O)N[C@@H](Cc1cc(F)cc(F)c1)c1ncccc1-c1ccc(N(C)C)c(C(N)=O)c1 [Example 372, (S)-5-(2-(1-(2-(4-cyano-5-methyl-3-(trifluoromethyl)-1H-pyrazol-1-yl)acetamido)-2-(3,5-difluorophenyl)ethyl)pyridin-3-yl)-2-(dimethylamino)benzamide]",0,24000,
"NC(=O)c1cccc(-c2cccnc2[C@H](Cc2cc(F)cc(F)c2)NC(=O)Cc2c[nH]c3ccc(N)cc23)c1 [Example 560, (S)-3-(2-(1-(2-(5-amino-1H-indol-3-yl)acetamido)-2-(3,5-difluorophenyl)ethyl)pyridin-3-yl)benzamide]",112,> 53000,
"CC(C)(C)OC(=O)NCc1ccc2c(CC(=O)N[C@@H](Cc3cc(F)cc(F)c3)c3ncccc3-c3cccc(C(N)=O)c3)c[nH]c2c1 [Example 502F, (S)-tert-butyl (3-(2-(1-(3-(3-carbamoylphenyl)pyridin-2-yl)-2-(3,5-difluorophenyl)ethylamino)-2-oxoethyl)-1H-indol-6-yl)methylcarbamate]",50,3050,
"NC(=O)c1cc(-c2cccnc2[C@H](Cc2cc(F)cc(F)c2)NC(=O)COc2cc[nH]c(=O)c2)ccc1F [Example 282, (S)-5-(2-(2-(3,5-difluorophenyl)-1-(2-(2-oxo-1,2-dihydropyridin-4-yloxy)acetamido)ethyl)pyridin-3-yl)-2-fluorobenzamide]",0,> 53200,
"CCOC(=O)c1cn(CC(=O)N[C@@H](Cc2cc(F)cc(F)c2)c2ncccc2-c2ccc(F)c(C(N)=O)c2)nc1C(F)(F)F [Example 289, (S)-ethyl 1-(2-(1-(3-(3-carbamoyl-4-fluorophenyl)pyridin-2-yl)-2-(3,5-difluorophenyl)ethylamino)-2-oxoethyl)-3-(trifluoromethyl)-1H-pyrazole-4-carboxylate]",2,26400,
"O=C(Cn1nc(C(F)(F)F)c2c1C1CC1CC2)N[C@@H](Cc1cc(F)cc(F)c1)c1ncccc1-c1cnc2[nH]ccc2c1 (stereo partly drawn) [Example 379, N—((S)-1-(3-(1H-pyrrolo[2,3-b]pyridin-5-yl)pyridin-2-yl)-2-(3,5-difluorophenyl)ethyl)-2-(3-(trifluoromethyl)-5,5a,6,6a-tetrahydrocyclopropa[g]indazol-1(4H)-yl)acetamide]",112,9240,
"NC(=O)c1cc(-c2cccnc2[C@H](Cc2cc(F)cc(F)c2)NC(=O)Cn2nc(C(F)F)c3c2CC(F)(F)C3)ccc1F [Example 241D, (S)-5-(2-(1-(2-(3-(difluoromethyl)-5,5-difluoro-5,6-dihydrocyclopenta[c]pyrazol-1(4H)-yl)acetamido)-2-(3,5-difluorophenyl)ethyl)pyridin-3-yl)-2-fluorobenzamide]",78,25400,
"CCC(C(=O)N[C@@H](Cc1cc(F)cc(F)c1)c1ncccc1-c1ccc(F)c(C(N)=O)c1)n1nc(C(F)(F)F)c2c1CCCC2 (stereo partly drawn) [Example 504E, 5-(2-((1S)-2-(3,5-difluorophenyl)-1-(2-(3-(trifluoromethyl)-4,5,6,7-tetrahydro-1H-indazol-1-yl)butanamido)ethyl)pyridin-3-yl)-2-fluorobenzamide]",,12800,142
"NC(=O)c1cc(-c2cccnc2[C@H](Cc2cc(F)cc(F)c2)NC(=O)[C@H]2CC[C@@H](c3ccccc3)N2)ccc1F [Example 183, (2R,5S)—N—((S)-1-(3-(3-carbamoyl-4-fluorophenyl)pyridin-2-yl)-2-(3,5-difluorophenyl)ethyl)-5-phenylpyrrolidine-2-carboxamide]",0,35200,
"NC(=O)c1cc(-c2cccnc2[C@H](Cc2cc(F)cc(F)c2)NC(=O)Cn2nc(C(F)F)cc2C2CC2)ccc1F [Example 317, (S)-5-(2-(1-(2-(5-cyclopropyl-3-(difluoromethyl)-1H-pyrazol-1-yl)acetamido)-2-(3,5-difluorophenyl)ethyl)pyridin-3-yl)-2-fluorobenzamide]",41,> 47600,
"NC(=O)c1cc(-c2cccnc2[C@H](Cc2cc(F)cc(F)c2)NC(=O)Cn2nc(C(F)F)c3c2C(F)C2CC32)ccc1F (stereo partly drawn) [Example 260, 5-(2-((1S)-1-(2-(3-(difluoromethyl)-5-fluoro-3b,4,4a,5-tetrahydro-1H-cyclopropa[3,4]cyclopenta[1,2-c]pyrazol-1-yl)acetamido)-2-(3,5-difluorophenyl)ethyl)pyridin-3-yl)-2-fluorobenzamide]",54,28100,
"CN(C)Cc1cn(CC(=O)N[C@@H](Cc2cc(F)cc(F)c2)c2ncccc2-c2ccc(F)c(C(N)=O)c2)nc1C(F)(F)F [Example 300, (S)-5-(2-(2-(3,5-difluorophenyl)-1-(2-(4-((dimethylamino)methyl)-3-(trifluoromethyl)-1H-pyrazol-1-yl)acetamido)ethyl)pyridin-3-yl)-2-fluorobenzamide]",0,> 53200,
"NC(=O)c1cc(-c2cccnc2[C@H](Cc2cc(F)cc(F)c2)NC(=O)Cn2nc(C(F)(F)F)c3c2CCC3=O)ccc1F [Example 492B, (S)-5-(2-(2-(3,5-difluorophenyl)-1-(2-(4-oxo-3-(trifluoromethyl)-5,6-dihydrocyclopenta[c]pyrazol-1(4H)-yl)acetamido)ethyl)pyridin-3-yl)-2-fluorobenzamide]",2,> 53200,
"Cc1cc2ccccc2n1CC(=O)N[C@@H](Cc1cc(F)cc(F)c1)c1ncccc1-c1ccc(F)c(C(N)=O)c1 [Example 367, (S)-5-(2-(2-(3,5-difluorophenyl)-1-(2-(2-methyl-1H-indol-1-yl)acetamido)ethyl)pyridin-3-yl)-2-fluorobenzamide]",20,13400,
"O=C(Cc1c[nH]c2ccc(F)cc12)N[C@@H](Cc1cc(F)cc(F)c1)c1ncccc1-c1cccc(C(F)(F)F)c1 [Example 110, (S)—N-(2-(3,5-difluorophenyl)-1-(3-(3-(trifluoromethyl)phenyl)pyridin-2-yl)ethyl)-2-(5-fluoro-1H-indol-3-yl)acetamide]",6,7610,
"NC(=O)c1cc(-c2cccnc2[C@H](Cc2cc(F)cc(F)c2)NC(=O)Cn2nc(C(F)(F)F)cc2C(F)(F)F)ccc1F [Example 542, (S)-5-(2-(1-(2-(3,5-bis(trifluoromethyl)-1H-pyrazol-1-yl)acetamido)-2-(3,5-difluorophenyl)ethyl)pyridin-3-yl)-2-fluorobenzamide]",1,33600,
"NC(=O)c1cc(-c2cccnc2[C@H](Cc2cc(F)cc(F)c2)NC(=O)Cn2nc(C(=O)O)c3c2C2CCC3C2)ccc1F (stereo partly drawn) [Example 409, (S)-5-(2-(2-(3,5-difluorophenyl)-1-(2-(4,5,6,7-tetrahydro-3-carboxy-4,7-(methano)indazol-1-yl)acetamido)ethyl)pyridin-3-yl)-2-fluorobenzamide]",0,> 53200,
